From ChEMBL document CHEMBL1143708, “5-alkynyl analogs of arabinouridine and 2'-deoxyuridine: cytostatic activity against herpes simplex virus and varicella-zoster thymidine kinase gene-transfected cells” (J Med Chem, 2007) come the findings set out here.

The term EC50 denotes the midpoint of the concentration-response curve.

≈ marks a conversion by molar mass, not a printed value. Bounds are passed on as bounds.

The test concerns Vaccinia virus. The test is described as follows: Antiviral activity against Vaccinia virus in E6SM cells assessed as reduction of virus-induced cytopathogenicity. Format: functional, organism-based. The settings on record: Orthopoxvirus vaccinia.
For the compound `C#Cc1cn([C@H]2C[C@H](O)[C@@H](CO)O2)c(=O)[nH]c1=O`, the concentration for a half-maximal effect (EC50) was determined as 0.1 µg/mL (≈ 0.396 µM).

For `C[Si](C)(C)C#Cc1cn([C@H]2C[C@H](O)[C@@H](CO)O2)c(=O)[nH]c1=O`, the EC50 stood at 0.2 µg/mL (≈ 0.617 µM).

Consider `CC(=O)OC[C@H]1O[C@@H](n2cc(C#CI)c(=O)[nH]c2=O)[C@@H](OC(C)=O)[C@@H]1OC(C)=O`, for which the EC50 was over 10 µg/mL.

For the compound `O=c1[nH]c(=O)n([C@H]2C[C@H](O)[C@@H](CO)O2)cc1C#CI`, the EC50 was found to be 0.2 µg/mL (≈ 0.529 µM).

Turning to `C[Si](C)(C)C#Cc1cn([C@@H]2O[C@H](CO)[C@@H](O)[C@@H]2O)c(=O)[nH]c1=O`, the EC50 came to 7 µg/mL (≈ 20.6 µM).

As for `Nc1nc2c(ncn2COCCO)c(=O)[nH]1` [ACYCLOVIR], the EC50 is over 400 µg/mL.

Take `O=c1[nH]c(=O)n([C@H]2C[C@H](O)[C@@H](CO)O2)cc1/C=C/Br` [BRIVUDINE]: the EC50 was determined as 0.2 µg/mL (≈ 0.6 µM).

With `Nc1nc2c(ncn2COC(CO)CO)c(=O)[nH]1` [GANCICLOVIR], the EC50 was over 100 µg/mL.

For `NC(=O)c1ncn([C@@H]2O[C@H](CO)[C@@H](O)[C@H]2O)n1` [RIBAVIRIN], the 50% effective concentration (EC50) turned out to be 20 µg/mL (≈ 81.9 µM).
